Assay results: PMC9293909 (Nature Communications, 2022)

What was measured:
[1] = test system: native presynaptic A1Rs, rat hippocampal slices; assay: Extracellular fEPSP recording, inhibition of excitatory synaptic transmission in hippocampal slices; format: cell-based
Method: Rats were kept on a 12-hour light-dark cycle with slices made 90 min after entering the light cycle. […] The brain was removed, cut down the midline and the two sides of the brain stuck down to a metal base plate using cyanoacrylate glue. […] Slices were stored at 34 °C for 1–6 h in aCSF (1 mM MgCl2, 2 mM CaCl2) before use.
A slice was transferred to the recording chamber, submerged in aCSF and perfused at 4–6 ml min^−1 (32 ± 0.5 °C). The slice was placed on a grid allowing perfusion above and below the tissue and all tubing was gastight (to prevent loss of oxygen). […] Field excitatory postsynaptic potentials (fEPSPs) were evoked with either an isolated pulse stimulator model 2100 (AM Systems, WA) or ISO-Flex (AMPI, Jerusalem, Israel). For fEPSPs a 10–20 min baseline was recorded at a stimulus intensity that gave 40-50% of the maximal response. […] For fEPSP slope, a 1 ms linear region after the fibre volley was measured. Extracellular recordings were made independently on two electrophysiology rigs.
Statistical significance was tested as indicated in the text using paired or unpaired two-tailed t-tests or one-way or two-way ANOVAs with repeated measures (RM) as appropriate. Bonferroni corrections for multiple comparisons were performed. All in vitro cell signalling assay data was analysed using Prism 8.4 (Graphpad software, San Diego, CA), with all concentration-response curves being fitted using a 3 parameter logistic equation to calculate response range and IC50. All cAMP data was normalised to a forskolin concentration-response curve ran in parallel to each assay.

rA3R [2] = target: T1, rA3R (Rattus norvegicus, UniProt P28647); assay: NanoBRET competition binding with AV039; conditions: displacement of AV039; read-out: pKi rA3R (converted)
T1 construct: expressed in transfected cells; host or cells: Flp-In-CHO (ThermoFisher R75807), pcDNA5/FRT
T1 sequence (P28647 1-320): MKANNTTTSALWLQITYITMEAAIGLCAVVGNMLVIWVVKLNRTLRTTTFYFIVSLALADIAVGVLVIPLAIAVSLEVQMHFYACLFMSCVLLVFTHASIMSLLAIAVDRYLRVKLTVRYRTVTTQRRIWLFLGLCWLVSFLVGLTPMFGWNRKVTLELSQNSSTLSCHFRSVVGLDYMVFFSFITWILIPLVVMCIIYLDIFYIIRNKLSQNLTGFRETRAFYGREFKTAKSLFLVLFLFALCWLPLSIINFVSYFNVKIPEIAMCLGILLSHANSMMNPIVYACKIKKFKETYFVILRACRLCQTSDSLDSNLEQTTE
Method: Here data was fitted with the ‘two-site Ki model’, build into Prism to determine high affinity and low affinity values for the unlabelled agonists. […] BRET was measured following the addition of the Nluc substrate, Furimazine (0.1 μM).

frog heart = assay: Isolated frog heart preparation, heart rate; conditions: adenosine 30 µM
Method: Young adult male Xenopus leavis frogs were obtained from Portsmouth Xenopus Resource Centre. […] The animals were dissected to reveal the heart and the pericardium was carefully removed. Heart contractions were measured with a force transducer (AD instruments). Heart rate was acquired via a PowerLab 26 T (AD instruments) controlled by LabChart 7 (AD instruments). The heart was regularly washed with Ringer solution and drugs were applied directly to the heart.

rA3R [3] = target: T1, rA3R; assay: cAMP inhibition at rA3R (Flp-In-CHO); format: cell-based
From the text: Cell lines were maintained using standard subculturing routines as guided by the European Collection of Cell Culture (ECACC) and checked annually for mycoplasma infection using an EZ-PCR mycoplasma test kit from Biological Industries (Kibbutz Beit-Haemek, Israel). To investigate the signalling properties of the rat A3R (rA3R) and mutants of the human A1R (hA1R), stable cell lines were generated using Flp-In-CHO cells (ThermoFisher - R75807). Untagged hA1R from sigNanoLuciferase (Nluc)-A1R in pcDNA3.1+ and untagged rA3R from sigNluc-A3R in pcDNA3.1 + (both gifted by Dr Steve Briddon (University of Nottingham)) were cloned into the pcDNA5/FRT expression vector (Thermo Fisher Scientific). Mutations within the hA1R were made using the QuikChange Lightening Site-Directed Mutagenesis Kit (Agilent Technologies) in accordance with the manufacturer’s instructions. Constructs for generating Goa/b interfering and scrambled peptides were generated by PCR and cloned into the BamHI/HindIII site of pcDNA3.1- as described in Gilchrist et al.[60],. Prior to the initiator codon a Kozak sequence was included for enhanced translation. The peptide sequences used were: for Goa […], for Gob […], and for the scrambled peptide […] was used. Constructs were sequenced to confirm fidelity. Flp-In-CHO cells were generated through co-transfection of the cell line with pcDNA5/FRT expression vector (Thermo Fisher Scientific) containing the WT or mutant hA1R, or rA3R, and the Flp recombinase expressing plasmid, pOG44 (Thermo Fisher Scientific), in accordance with the manufacturer’s instructions. […] CHO cell lines expressing ARs of interest (including mutants of the hA1R) were routinely cultured in Ham’s F-12 nutrient mix supplemented with 10% foetal bovine serum (FBS), at 37 °C with 5% CO2, in a humidified atmosphere.

[4] = target: T2, β-arrestin2 recruitment to hA3R (Homo sapiens, UniProt P0DMS8); assay: BRET β-arrestin2 recruitment to A3R, HEK 293T; format: cell-based
T2 construct: expressed in transfected cells; host or cells: HEK 293T (ATCC CRL-3216), transient

[5] = test system: CA1 pyramidal cells (Goa / Gob signalling); assay: Whole-cell voltage-clamp, adenosine-induced outward current with intracellular G protein interfering peptides; format: cell-based, rat; conditions: adenosine 10 µM; control conditions
Method: A slice was transferred to the recording chamber and perfused at 3 ml min^−1 with aCSF at 32 ± 0.5 °C. Slices were visualised using IR-DIC optics with an Olympus BX151W microscope (Scientifica) and a CCD camera (Hitachi). […] Voltage and current recordings were obtained using an Axon Multiclamp 700B amplifier (Molecular Devices, USA) and digitised at 20 KHz. Data acquisition and analysis was performed using pClamp 10 (Molecular Devices, USA). For voltage-clamp experiments, CA1 pyramidal cells were held at −60 mV. Peptides to interfere with G protein signalling were introduced via the patch pipette into the recorded cell.
Drugs were made up as stock solutions (1-10 mM) and then diluted in aCSF or saline on the day of use. […] MRS1523 was purchased from Cayman Chemicals (Cambridge Bioscience Ltd., Cambridge UK). […] CA200645 and peptides for interfering with G protein signalling were obtained from Hello Bio (Bristol, UK) and were based on published sequences. […] The scrambled version was […]. […] Peptides were made up as stock solutions (2 mM) and stored at −20 °C. The stock solutions were dissolved in filtered intracellular solution just before use.

[6] = test system: heart rate and mean arterial blood pressure; assay: Urethane-anaesthetised rat, heart rate and arterial blood pressure; conditions: adenosine 1 mg kg^−1 IV
From the text: Anaesthesia was induced in adult male Sprague–Dawley rats (230-330 g) with isofluorane (2–4%; Piramal Healthcare). The femoral vein was catheterised for drug delivery. Anaesthesia was maintained with urethane (1.2–1.7 g kg^−1; Sigma) in sterile saline delivered via the femoral vein catheter. […] The trachea was cannulated and the femoral artery catheterised, and both were connected to pressure transducers (Digitimer) to record respiratory airflow and arterial blood pressure, respectively. Blood pressure and airflow signals were amplified using the NeuroLog system (Digitimer) connected to a micro1401 interface and acquired on a computer using Spike2 software (v7.08a; Cambridge Electronic Design). […] Airflow measurements were used to calculate: tidal volume (VT; mL; pressure sensors were calibrated with a 3 mL syringe), and respiratory frequency (f; breaths min^−1; BrPM). Minute ventilation (VE; mL min^−1) was calculated as f × VT.
Cardiovascular and respiratory parameters were allowed to stabilise before experiments began. A1R agonists were administered by intravenous (IV) injection and the changes in HR, MAP, f, VT, and VE were measured. […] All injections were administered IV as a 350 µl·kg^-1 bolus.

T2 sequence (P0DMS8 whole entry): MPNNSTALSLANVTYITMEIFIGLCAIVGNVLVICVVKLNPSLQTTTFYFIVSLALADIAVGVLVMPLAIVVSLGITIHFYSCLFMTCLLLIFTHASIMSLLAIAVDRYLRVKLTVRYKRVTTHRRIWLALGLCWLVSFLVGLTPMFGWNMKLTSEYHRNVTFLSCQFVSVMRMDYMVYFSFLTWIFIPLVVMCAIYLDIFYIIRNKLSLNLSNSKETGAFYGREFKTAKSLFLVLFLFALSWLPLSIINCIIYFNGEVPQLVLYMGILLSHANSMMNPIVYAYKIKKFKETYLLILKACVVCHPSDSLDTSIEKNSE

Nc1ncnc2c1ncn2[C@@H]1O[C@H](CO)[C@@H](O)[C@H]1O [Adenosine]
IC50 ([1]; Rattus norvegicus, read-out: IC50 inhibition of synaptic transmission): 20 ± 4.3 µM
depression of the fEPSP ([1]; adenosine 30 µM): 66.7 ± 6.7%
depression of the fEPSP ([1]; adenosine 30 µM in the presence of 2-Cl-IB-MECA 1 µM): 67.5 ± 6.5%
Ki (rA3R [2]): 1.29 µM
reduction of heart rate (frog heart): 6.3 ± 0.6 BPM
heart rate after application (frog heart; before 41.8 ± 1.3 BPM): 35.5 ± 1.3 BPM
IC50 (rA3R [3]; half-maximal response, cAMP inhibition, read-out: pIC50 rA3R (converted)): 0.0676 µM
Range rA3R (rA3R [3]; range of response as percentage of response to 10 μM forskolin): 66.05 ± 5.4%
β-arrestin2 recruitment by the A3R [4]: β-arrestin2 recruitment
outward current induced by adenosine [5]: 40.6 ± 2.2 pA
reduction of HR [6]: ~ 66%
reduction of MAP [6]: ~ 47%
MAP after injection ([6]; resting 86 ± 9 mm Hg): 46 ± 4 mm Hg
HR after injection ([6]; resting 432 ± 21 BPM): 147 ± 12 BPM
